According to ChEMBL document CHEMBL1201862, “PubChem BioAssay data set” (2004):
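Method: 48-hour compound exposure of cells in 96-well plates, five concentrations, linear interpolation of endpoints. GI50 marks 50% less growth.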 Active and inactive are the calls of the source. Cut-off read from the data, not from the text of the source: active = GI50 up to about 1.1 µM and inactive = higher.

Columns and labels:
Test in all cases: DTP human tumour cell line panel, 48 h
786-0 = tested on: 786-0
A498 = tested on: A498
A549 = tested on: A549
ACHN = tested on: ACHN
CCRF-CEM = tested on: CCRF-CEM
COLO 205 = tested on: COLO 205
DLD-1 = tested on: DLD-1
DMS-114 = tested on: DMS-114
DMS-273 = tested on: DMS-273
EKVX = tested on: EKVX
HCC 2998 = tested on: HCC 2998
HCT-116 = tested on: HCT-116
HCT-15 = tested on: HCT-15
HL-60 = tested on: HL-60
HOP-18 = tested on: HOP-18
HOP-62 = tested on: HOP-62
HOP-92 = tested on: HOP-92
HT-29 = tested on: HT-29
IGROV-1 = tested on: IGROV-1
K562 = tested on: K562
KM-20L2 = tested on: KM-20L2
KM12 = tested on: KM12
LOX IMVI = tested on: LOX IMVI
LXFL 529 = tested on: LXFL 529
M14 = tested on: M14
M19-MEL = tested on: M19-MEL
MOLT-4 = tested on: MOLT-4
Malme-3M = tested on: Malme-3M
NCI-H23 = tested on: NCI-H23
NCI-H460 = tested on: NCI-H460
NCI-H522 = tested on: NCI-H522
OVCAR-3 = tested on: OVCAR-3
OVCAR-8 = tested on: OVCAR-8
RPMI-8226 = tested on: RPMI-8226
RXF 393 = tested on: RXF 393
SF-268 = tested on: SF-268
SF-295 = tested on: SF-295
SF-539 = tested on: SF-539
SK-MEL-28 = tested on: SK-MEL-28
SK-MEL-2 = tested on: SK-MEL-2
SK-OV-3 = tested on: SK-OV-3
SN12C = tested on: SN12C
SNB-19 = tested on: SNB-19
SNB-75 = tested on: SNB-75
SNB-78 = tested on: SNB-78
SR = tested on: SR
SW-620 = tested on: SW-620
TK-10 = tested on: TK-10
U-251 = tested on: U-251
UACC-257 = tested on: UACC-257
UACC-62 = tested on: UACC-62
UO-31 = tested on: UO-31
XF498 = tested on: XF498
CAKI-1 = tested on: CAKI-1
OVCAR-4 = tested on: OVCAR-4
OVCAR-5 = tested on: OVCAR-5
SK-MEL-5 = tested on: SK-MEL-5
NCI-H226 = tested on: NCI-H226

In the case of CC1(C)CC(=O)C2=C(C1)S/C(=C1/SC3=C(S1)C(=O)CC(C)(C)C3)S2, the GI50 (786-0) is reported as > 251 µM (inactive), the GI50 (A498) is reported as > 251 µM (inactive) and the GI50 (A549) is reported as > 251 µM (inactive). The GI50 (ACHN) was > 251 µM (inactive), the GI50 (CCRF-CEM) was > 251 µM (inactive) and the GI50 (COLO 205) was > 251 µM (inactive). For the same molecule, the GI50 (DLD-1) was > 251 µM (inactive), the GI50 (DMS-114) was > 251 µM (inactive) and the GI50 (DMS-273) was > 251 µM (inactive). For the same molecule, the GI50 (EKVX) was > 251 µM (inactive), the GI50 (HCC 2998) was > 251 µM (inactive) and the GI50 (HCT-116) was > 251 µM (inactive). For the same molecule, the GI50 (HCT-15) was over 251 µM, the GI50 (HL-60) was > 251 µM (inactive) and the GI50 (HOP-18) was > 251 µM (inactive). The GI50 (HOP-62) was > 251 µM (inactive), the GI50 (HOP-92) was > 251 µM (inactive) and the GI50 (HT-29) was > 251 µM (inactive). For the same molecule, the GI50 (IGROV-1) was > 251 µM (inactive), the GI50 (K562) was > 251 µM (inactive) and the GI50 (KM-20L2) was > 251 µM (inactive). For the same molecule, the GI50 (KM12) was > 251 µM (inactive), the GI50 (LOX IMVI) was > 251 µM (inactive) and the GI50 (LXFL 529) was > 251 µM (inactive). For the same molecule, the GI50 (M14) was > 251 µM (inactive), the GI50 (M19-MEL) was > 251 µM (inactive) and the GI50 (MOLT-4) was > 251 µM (inactive). For the same molecule, the GI50 (Malme-3M) was > 251 µM (inactive), the GI50 (NCI-H23) was > 251 µM (inactive) and the GI50 (NCI-H460) was > 251 µM (inactive). For the same molecule, the GI50 (NCI-H522) was > 251 µM (inactive), the GI50 (OVCAR-3) was > 251 µM (inactive) and the GI50 (OVCAR-8) was > 251 µM (inactive). For the same molecule, the GI50 (RPMI-8226) was > 251 µM (inactive), the GI50 (RXF 393) was > 251 µM (inactive) and the GI50 (SF-268) was > 251 µM (inactive). For the same molecule, the GI50 (SF-295) was > 251 µM (inactive), the GI50 (SF-539) was > 251 µM (inactive) and the GI50 (SK-MEL-28) was > 251 µM (inactive). For the same molecule, the GI50 (SK-MEL-2) was > 251 µM (inactive), the GI50 (SK-OV-3) was > 251 µM (inactive) and the GI50 (SN12C) was > 251 µM (inactive). For the same molecule, the GI50 (SNB-19) was > 251 µM (inactive), the GI50 (SNB-75) was > 251 µM (inactive) and the GI50 (SNB-78) was > 251 µM (inactive). The GI50 (SR) was > 251 µM (inactive), the GI50 (SW-620) was > 251 µM (inactive) and the GI50 (TK-10) was > 251 µM (inactive). For the same molecule, the GI50 (U-251) was > 251 µM (inactive), the GI50 (UACC-257) was > 251 µM (inactive) and the GI50 (UACC-62) was > 251 µM (inactive). For the same molecule, the GI50 (UO-31) was > 251 µM (inactive) and the GI50 (XF498) was > 251 µM (inactive).
Nc1ncnc2c1ncn2C1OC(CSCc2ccc(Cl)cc2)C(O)C1O (configuration not stated) was tested, and the GI50 (786-0) was 34.1 µM (inactive), the GI50 (A498) was 23.8 µM (inactive) and the GI50 (A549) was 43.1 µM (inactive). For the same molecule, the GI50 (ACHN) was 34.9 µM (inactive), the GI50 (CAKI-1) was 21.5 µM (inactive) and the GI50 (CCRF-CEM) was 31.3 µM (inactive). For the same molecule, the GI50 (COLO 205) was 40.4 µM (inactive), the GI50 (DLD-1) was 14.6 µM (inactive) and the GI50 (DMS-114) was 21.9 µM (inactive). For the same molecule, the GI50 (DMS-273) was 30.1 µM (inactive), the GI50 (EKVX) was 81.7 µM (inactive) and the GI50 (HCC 2998) was 44.9 µM (inactive). The GI50 (HCT-116) was 19.8 µM (inactive), the GI50 (HCT-15) was 12 µM and the GI50 (HL-60) was 23.8 µM (inactive). The GI50 (HOP-18) was 42 µM (inactive), the GI50 (HOP-62) was 17 µM (inactive) and the GI50 (HOP-92) was 4.18 µM (inactive). For the same molecule, the GI50 (HT-29) was 22.1 µM (inactive), the GI50 (IGROV-1) was 89.3 µM (inactive) and the GI50 (K562) was 30 µM (inactive). For the same molecule, the GI50 (KM-20L2) was 9.55 µM (inactive), the GI50 (KM12) was 24.2 µM (inactive) and the GI50 (LOX IMVI) was 37.3 µM (inactive). For the same molecule, the GI50 (LXFL 529) was 17.2 µM (inactive), the GI50 (M14) was 17.1 µM (inactive) and the GI50 (M19-MEL) was 33.7 µM (inactive). The GI50 (MOLT-4) was 10.7 µM (inactive), the GI50 (Malme-3M) was 56.9 µM (inactive) and the GI50 (NCI-H23) was 24.2 µM (inactive). The GI50 (NCI-H460) was > 100 µM (inactive), the GI50 (OVCAR-3) was 32.1 µM (inactive) and the GI50 (OVCAR-4) was 35.6 µM (inactive). For the same molecule, the GI50 (OVCAR-5) was > 100 µM (inactive), the GI50 (OVCAR-8) was 42.7 µM (inactive) and the GI50 (RPMI-8226) was 21.8 µM (inactive). The GI50 (RXF 393) was 21.2 µM (inactive), the GI50 (SF-268) was 40.1 µM (inactive) and the GI50 (SF-295) was 50.9 µM (inactive). The GI50 (SF-539) was 29.4 µM (inactive), the GI50 (SK-MEL-2) was 25.5 µM (inactive) and the GI50 (SK-MEL-5) was 33.8 µM (inactive). For the same molecule, the GI50 (SK-OV-3) was > 100 µM (inactive), the GI50 (SN12C) was 45.7 µM (inactive) and the GI50 (SNB-19) was 35.9 µM (inactive). For the same molecule, the GI50 (SNB-75) was 18.3 µM (inactive), the GI50 (SNB-78) was 68.9 µM (inactive) and the GI50 (SW-620) was 31.8 µM (inactive). The GI50 (TK-10) was 55 µM (inactive), the GI50 (U-251) was 66.2 µM (inactive) and the GI50 (UACC-257) was 31.3 µM (inactive). The GI50 (UACC-62) was 46.9 µM (inactive), the GI50 (UO-31) was 18.9 µM (inactive) and the GI50 (XF498) was 22.8 µM (inactive).
In the case of Cn1c(=O)c(C(=O)NC(=O)NCCCCCOC(=O)CCCCCCCCCCC(=O)OCCCCCNC(=O)NC(=O)c2cn(Cc3ccccc3)c(=O)n(C)c2=O)cn(Cc2ccccc2)c1=O, the GI50 (786-0) is reported as > 100 µM (inactive), the GI50 (A498) is reported as > 100 µM (inactive) and the GI50 (A549) is reported as > 100 µM (inactive). For the same molecule, the GI50 (ACHN) was > 100 µM (inactive), the GI50 (CAKI-1) was > 100 µM (inactive) and the GI50 (CCRF-CEM) was > 100 µM (inactive). For the same molecule, the GI50 (COLO 205) was > 100 µM (inactive), the GI50 (DLD-1) was > 100 µM (inactive) and the GI50 (DMS-114) was > 100 µM (inactive). The GI50 (DMS-273) was > 100 µM (inactive), the GI50 (EKVX) was > 100 µM (inactive) and the GI50 (HCC 2998) was > 100 µM (inactive). For the same molecule, the GI50 (HCT-116) was > 100 µM (inactive), the GI50 (HCT-15) was over 100 µM and the GI50 (HL-60) was > 100 µM (inactive). For the same molecule, the GI50 (HOP-18) was > 100 µM (inactive), the GI50 (HOP-62) was > 100 µM (inactive) and the GI50 (HOP-92) was 71.4 µM (inactive). The GI50 (HT-29) was > 100 µM (inactive), the GI50 (IGROV-1) was > 100 µM (inactive) and the GI50 (K562) was > 100 µM (inactive). For the same molecule, the GI50 (KM-20L2) was > 100 µM (inactive), the GI50 (KM12) was > 100 µM (inactive) and the GI50 (LOX IMVI) was > 100 µM (inactive). For the same molecule, the GI50 (LXFL 529) was > 100 µM (inactive), the GI50 (M14) was > 100 µM (inactive) and the GI50 (M19-MEL) was > 100 µM (inactive). For the same molecule, the GI50 (Malme-3M) was > 100 µM (inactive), the GI50 (NCI-H226) was > 100 µM (inactive) and the GI50 (NCI-H23) was > 100 µM (inactive). The GI50 (NCI-H460) was > 100 µM (inactive), the GI50 (NCI-H522) was > 100 µM (inactive) and the GI50 (OVCAR-3) was > 100 µM (inactive). For the same molecule, the GI50 (OVCAR-4) was > 100 µM (inactive), the GI50 (OVCAR-5) was > 100 µM (inactive) and the GI50 (OVCAR-8) was > 100 µM (inactive). The GI50 (RPMI-8226) was > 100 µM (inactive), the GI50 (RXF 393) was > 100 µM (inactive) and the GI50 (SF-268) was > 100 µM (inactive). The GI50 (SF-539) was > 100 µM (inactive), the GI50 (SK-MEL-28) was > 100 µM (inactive) and the GI50 (SK-MEL-2) was > 100 µM (inactive). The GI50 (SK-MEL-5) was > 100 µM (inactive), the GI50 (SK-OV-3) was > 100 µM (inactive) and the GI50 (SN12C) was > 100 µM (inactive). The GI50 (SNB-19) was > 100 µM (inactive), the GI50 (SNB-75) was > 100 µM (inactive) and the GI50 (SNB-78) was > 100 µM (inactive). The GI50 (SW-620) was > 100 µM (inactive), the GI50 (TK-10) was > 100 µM (inactive) and the GI50 (U-251) was > 100 µM (inactive). For the same molecule, the GI50 (UACC-257) was > 100 µM (inactive), the GI50 (UACC-62) was > 100 µM (inactive) and the GI50 (UO-31) was > 100 µM (inactive). The GI50 (XF498) was > 100 µM (inactive).
